In patent publication US7473437B2, “Method of forming fluorescent image, fluorescent image, and ink-jet recording method” (Canon Kabushiki Kaisha, priority 2004, dated 2009):
Values joined by “and” are separate entries in the source; they are usually repeats but may differ in a detail not shown here. Identical values can stand only once.

Key:
Format in all cases: physicochemical
[1] = Fluorescent coloring material content causing concentration quenching; conditions: image printed on a recording material
Experimental: The following respective components as ink composition to be used were mixed and sufficiently stirred, and the resultant was dissolved and/or dispersed. After that, the resultant was filtered through a Phloropore filter (trade name; manufactured by Sumitomo Electric Industries, Ltd.) having a pore size of 0.1 μm under pressure to prepare each ink. An ink 1, an ink 2, an ink 3, and an ink 5 were defined as inks of Examples and an ink 4 was defined as Reference Example. The content of each fluorescent coloring material in ink for causing the concentration quenching of a fluorescent image printed on a recording material is 0.3% by mass or more for C.I. Acid Red 52, 2.0% by mass or more for C.I. Acid Red 92, or more than 2.0% by mass for the compound (A).
In each of the above ink compositions, the fluorescence intensity of each of the inks 1 to 4 was measured by means of a commercially available fluorescence measuring device […] (trade name; manufactured by JASCO Corporation).

[2] = Fluorescent emission and excitation spectra of evaporated ink (FP-750); conditions: standard excitation wavelength 254 nm
Experimental: At first, a predetermined amount (in this case, 0.3% by mass with respect to the solution) of C.I. Acid Red 52 (AR52) as the first fluorescent coloring material was dissolved into an aqueous solution (an organic solvent such as glycerin and purified water), followed by heating at 60° C. to completely vaporize water content, resulting in ink (hereinafter, referred to as evaporated ink).
The fluorescent emission spectra and excitation spectra of the first and second fluorescent coloring materials were measured using a fluorometer FP-750 (trade name; manufactured by JASCO Corporation). Each measurement sample was an ink from which water content was evaporated to remove the influence of water on the measurement.

[3] = Light absorption spectrum of coloring materials
Experimental: Next, the multiple fluorescent coloring materials will be described more specifically with reference to multiple fluorescence examples and reference examples. Here, measurement values obtained with purified water diluted solutions of coloring materials were used for an absorption wavelength region, a maximum absorption wavelength region, and a fluorescence wavelength region. Using an absorption spectrometer, absorption wavelengths were measured. A diluted solution was prepared in such a manner that the absorbance thereof was in the range of 0.5 to 0.7. A higher region from a base line as the absorption peak of the coloring material was defined as an absorption wavelength region, and the peak value was defined as a maximum absorption wavelength. In addition, for fluorescence wavelengths, the measurement conditions were set so that the fluorescence intensities were not beyond the measurement threshold value. Then, fluorescence wavelengths were measured by using the diluted solution used in the measurement of absorbance and by fixing the excitation wavelengths of the first and second coloring materials at predetermined wavelengths. A region higher than the base line was defined as a fluorescent emission wavelength region.
The absorption wavelength regions of the first and second coloring materials were measured using a spectrophotometer U-3200 (trade name; manufactured by Hitachi Ltd.) after the dye had been diluted 100,000-fold with purified water. The absorption wavelength region of the first coloring material ranged from 450 to 620 nm, and the maximum absorption wavelength thereof was 565 nm. In addition, the absorption wavelength region of the second coloring material ranged from 300 to 450 nm, and the maximum absorption wavelength thereof was 372 nm.

Row | SMILES | content of fluorescent coloring material in ink causing concentration quenching of a printed fluorescent image [1] [% by mass] | fluorescent emission peak wavelength [2] [nm] | maximum absorption wavelength ([3]; dye diluted 100,000-fold with purified water, spectrophotometer U-3200) [nm] | absorption peak wavelength ([3]; from FIGS. 5, 6, 12, listed as AR52) | absorption peak wavelength ([3]; from FIGS. 5, 6, 12) [nm] | absorption spectrum range, visible light ([3]; from FIGS. 5, 6, 12) [nm]
1 | O=C([O-])c1c(Cl)c(Cl)c(Cl)c(Cl)c1-c1c2cc(Br)c(=O)c(Br)c-2oc2c(Br)c([O-])c(Br)cc12.[Na+].[Na+] [C.I. Acid Red 92] | ≥ 2.0 | – | – | – | – | –
2 | CCN(CC)c1ccc2c(-c3ccc(S(=O)(=O)[O-])cc3S(=O)(=O)[O-])c3ccc(=[N+](CC)CC)cc-3oc2c1.[Na+] [C.I. Acid Red 52] | ≥ 0.3 | 600 | 565 | 565 nm and ~560 nm | – | –
3 | O=C([O-])c1ccccc1-c1c2ccc(=O)cc-2oc2cc([O-])ccc12.[Na+].[Na+] [C.I. Acid Yellow 73, reference compound] | – | 530 | – | – | 490 | ≤ 525
